Results published in the supplement of paper PMC10307832.

Tests used:
Experiment in all cases: relative viability (nuclei count vs DMSO), 5 days (fraction); higher = more cells survive
Sulindac + Crizotinib = compound: CC1=C(CC(=O)O)c2cc(F)ccc2/C1=C\c1ccc([S+](C)[O-])cc1 [Sulindac] + C[C@@H](Oc1cc(-c2cnn(C3CCNCC3)c2)cnc1N)c1c(Cl)ccc(F)c1Cl [Crizotinib] (partner 1 µM)
In short: (§1)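 Relative viability divides the nuclei count in treated wells by that in vehicle wells. Lung cancer cell lines were seeded in 1536-well plates, dosed by pin tool the next day, and fixed and stained after 5 days in one step with final 0.05% Triton X-100, 1% formaldehyde and 1 ug/ml Hoechst. Dosing was a single drug or a fixed anchor-drug dose plus five library-drug doses (not always all listed) in √10 steps, and values are medians of duplicate plates imaged at 4×.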

Sulindac + Linsitinib = compound: CC1=C(CC(=O)O)c2cc(F)ccc2/C1=C\c1ccc([S+](C)[O-])cc1 [Sulindac] + C[C@]1(O)C[C@@H](c2nc(-c3ccc4ccc(-c5ccccc5)nc4c3)c3c(N)nccn32)C1 [Linsitinib] (partner 1 µM)
In short: as §1

Sulindac + Alpelisib = compound: CC1=C(CC(=O)O)c2cc(F)ccc2/C1=C\c1ccc([S+](C)[O-])cc1 [Sulindac] + Cc1nc(NC(=O)N2CCC[C@H]2C(N)=O)sc1-c1ccnc(C(C)(C)C(F)(F)F)c1 [Alpelisib] (partner 2 µM)
In short: as §1

Sulindac + Olaparib = compound: CC1=C(CC(=O)O)c2cc(F)ccc2/C1=C\c1ccc([S+](C)[O-])cc1 [Sulindac] + O=C(c1cc(Cc2n[nH]c(=O)c3ccccc23)ccc1F)N1CCN(C(=O)C2CC2)CC1 [Olaparib] (partner 8 µM)
In short: as §1

Cell Line	relative viability (Sulindac + Crizotinib; first compound 0.08 µM)	relative viability (Sulindac + Crizotinib; first compound 0.253 µM)	relative viability (Sulindac + Crizotinib; first compound 0.8 µM)	relative viability (Sulindac + Crizotinib; first compound 2.53 µM)	relative viability (Sulindac + Crizotinib; first compound 8 µM)	relative viability (Sulindac + Linsitinib; first compound 0.08 µM)	relative viability (Sulindac + Linsitinib; first compound 0.253 µM)	relative viability (Sulindac + Linsitinib; first compound 0.8 µM)	relative viability (Sulindac + Linsitinib; first compound 2.53 µM)	relative viability (Sulindac + Linsitinib; first compound 8 µM)	relative viability (Sulindac + Alpelisib; first compound 0.08 µM)	relative viability (Sulindac + Alpelisib; first compound 0.253 µM)	relative viability (Sulindac + Alpelisib; first compound 0.8 µM)	relative viability (Sulindac + Alpelisib; first compound 2.53 µM)	relative viability (Sulindac + Alpelisib; first compound 8 µM)	relative viability (Sulindac + Olaparib; first compound 0.08 µM)	relative viability (Sulindac + Olaparib; first compound 0.253 µM)	relative viability (Sulindac + Olaparib; first compound 0.8 µM)	relative viability (Sulindac + Olaparib; first compound 2.53 µM)	relative viability (Sulindac + Olaparib; first compound 8 µM)
LXF-289	0.844	0.868	0.776	0.85	0.855	1.02	0.984	0.931	1.05	0.993	1.1	1.05	1.02	1.13	1.06	1.24	1.18	0.873	1.18	1.19
NCI-H23	0.39	0.643	0.359	0.689	0.504	0.584	0.6	0.32	0.678	0.758	0.763	0.78	0.636	0.658	0.859	0.32	0.319	0.367	0.258	0.282
NCI-H322M	1.02	1.05	0.687	1.03	1.05	1.01	1.01	0.747	0.951	1.05	0.644	0.777	0.652	0.848	0.928	0.674	0.772	0.742	0.837	0.87
NCI-H358	0.475	0.52	0.596	0.497	0.746	0.777	0.881	0.643	0.661	1.09	1.01	0.878	0.684	0.808	1.1	0.809	0.667	0.526	0.573	0.62
NCI-H441	0.709	0.719	0.626	0.651	0.946	0.469	0.375	0.48	0.638	0.849	0.724	0.713	0.642	0.888	0.917	0.514	0.537	0.442	0.476	0.624
NCI-H460	1.41	1.07		0.833	1.19	1.13	0.79		0.988	1.15	0.82	0.492		0.477	0.709	0.579	0.417	0.432	0.342	0.635
NCI-H520	0.801	0.747	0.445	0.828	0.876	1.24	1.1	0.739	0.997	1.33	0.965	0.839	0.894	0.873	1.17	0.36	0.328	0.302	0.313	0.283
NCI-H596	0.896	1.05	0.913	0.991	1.04	0.943	0.985	0.857	1.12	1.27	0.554	0.532	0.551	0.478	0.485	0.567	0.697		0.716	0.639
NCI-H647	1.4	1.21	0.879	1.26	1.35	1.14	1.3	1.4	1.25	1.21	1.43	1.27	0.718	1.15	1.23	0.689	0.577	0.346	0.398	0.785
NCI-H650	0.788	0.73	0.793	0.637	0.914	0.973	0.87	0.62	0.817	1.23	1.05	1.1	0.578	1.02	1.17	0.442	0.431	0.341	0.425	0.472
NCI-H661	0.973	1.03	1.03	1.17	0.973	0.585	0.564	0.501	0.637	0.711	0.639	0.551	0.535	0.621	0.725	0.971	0.789	0.59	0.742	0.836
NCI-H727	0.964	0.779	0.782	0.856	1.03	0.29	0.224	0.27	0.243	0.34	0.687	0.537	0.591	0.579	0.771	0.588	0.519	0.648	0.769	0.707
NCI-H838	1.12	0.781	0.674	0.903	0.884	1.19	1.06	0.848	1.01	1.2	1.22	0.983	0.769	0.975	1.08	0.941	0.798	0.65	0.809	0.914
NCI-H1299	1.06	0.975	0.866	0.971	1.01	1.14	1.18	0.898	1.02	1.01	1.23	1.19	0.624	1.2	1.08	0.98	1.04	0.889	0.962	1.03
NCI-H1355	1.27	1.15	0.954	1.07	1.11	0.873	0.949	0.777	0.785	0.883	0.912	0.945	0.784	0.842	0.854	0.704	0.691	0.679	0.66	0.759
NCI-H1437	1.15	0.992	0.58	0.978	1.04	1.33	1.14	0.628	1.09	1.26	1.25	0.905	0.733	0.946	1.17	0.748	0.679	0.503	0.638	0.665
NCI-H1651	0.969	0.86		0.93	0.929	1.1	1.01	0.777	0.955	1.27	1.2	1.1	0.874	0.911	1.3	0.17	0.189	0.162	0.177	0.169

Cell Line	relative viability (Sulindac + Crizotinib; first compound 0.08 µM)	relative viability (Sulindac + Crizotinib; first compound 0.253 µM)	relative viability (Sulindac + Crizotinib; first compound 0.8 µM)	relative viability (Sulindac + Crizotinib; first compound 2.53 µM)	relative viability (Sulindac + Crizotinib; first compound 8 µM)	relative viability (Sulindac + Linsitinib; first compound 0.08 µM)	relative viability (Sulindac + Linsitinib; first compound 0.253 µM)	relative viability (Sulindac + Linsitinib; first compound 0.8 µM)	relative viability (Sulindac + Linsitinib; first compound 2.53 µM)	relative viability (Sulindac + Linsitinib; first compound 8 µM)	relative viability (Sulindac + Alpelisib; first compound 0.08 µM)	relative viability (Sulindac + Alpelisib; first compound 0.253 µM)	relative viability (Sulindac + Alpelisib; first compound 0.8 µM)	relative viability (Sulindac + Alpelisib; first compound 2.53 µM)	relative viability (Sulindac + Alpelisib; first compound 8 µM)	relative viability (Sulindac + Olaparib; first compound 0.08 µM)	relative viability (Sulindac + Olaparib; first compound 0.253 µM)	relative viability (Sulindac + Olaparib; first compound 0.8 µM)	relative viability (Sulindac + Olaparib; first compound 2.53 µM)	relative viability (Sulindac + Olaparib; first compound 8 µM)
NCI-H1666		1.03	0.942	0.949	1.17		0.797	0.854	0.779	0.854		1.09	0.808	0.866	0.99	0.705	0.741	0.674	0.734	0.774
NCI-H1703	0.561	0.649	0.824	0.678	0.805	0.673	0.873	0.561	0.761	1.15	0.37	0.346	0.301	0.461	0.341	0.39	0.526	0.404	0.529	0.554
NCI-H1734	0.658	0.754	0.583	0.703	0.787	0.987	0.932	0.575	0.903	1.13	0.712	0.696	0.64	0.693	0.805	0.634	0.67	0.609	0.649	0.674
NCI-H1755	1	0.886	0.743	0.981	0.935	1.16	1.07	0.906	1	1.05	1.17	1.06	0.874	0.935	1	0.888	0.952	0.829	0.85	0.991
NCI-H1792	1	1		0.944	1.16	0.557	0.561		0.455	0.558	0.959	0.717		0.726	0.866	0.429	0.449		0.453	0.725
NCI-H1915	1.25	1.02	0.676	0.903	0.947	1.13	1.14	1.09	1.11	1.07	1.05	1.11	0.999	1.04	1.12	0.241	0.266	0.245	0.254	0.264
NCI-H1944	0.972	1.29	0.826	0.952	1.24	1.19	1.14	1	1.24	1.34	0.745	0.883	0.754	0.853	0.856	0.433	0.404	0.302	0.438	0.42
NCI-H1975	1.06	1.07		1.01	1.14	1.14	1.03		1.07	1.05	0.73	0.757		0.674	0.694	0.998	0.763	0.65	0.841	0.974
NCI-H1993	0.848	0.862	0.747	0.86	0.83	0.741	0.674	0.789	0.735	0.82	0.664	0.674	0.695	0.753	0.707	1.03	1.11	0.895	1.05	1.13
NCI-H2009	1.15	1.05	1.05	0.985	1.24	1.22	1.3	1.05	1.13	1.23	1.23	1.18	1.1	1.18	1.27	0.893	0.716	0.679	0.666	0.754
NCI-H2023	0.686	0.429	0.53	0.718	0.685	0.808	0.725	0.43	0.712	0.757	0.683	0.572	0.472	0.591	0.587	0.486	0.511		0.441	0.554
NCI-H2085	0.735	0.944	0.779	0.772	0.953	0.894	0.856	0.876	0.848	0.912	1.02	0.963	0.935	1.02	0.922	0.742	0.79	0.711	0.792	0.837
NCI-H2087	1.08	0.882	0.739	1.03	0.85	1.01	1.13	0.938	0.964	1.17	1.16	1	1.23	1.17	1.04	0.606	0.722	0.54	0.468	0.571
NCI-H2126	1.13	1.01	1.03	1.04	1.11	0.608	0.713	0.661	0.726	0.728	0.723	0.737	0.669	0.721	0.807	1.12	0.923	0.87	0.951	1
NCI-H2228	0.504	0.47	0.519	0.475	0.479	0.704	0.659	0.765	0.701	1.2	0.67	0.862	0.725	0.825	0.753	0.941	0.804	0.499	0.637	0.516
NCI-H2347	0.77	0.688	0.684	0.812	0.819	1.07	1.09	0.982	1.06	1.16	1.22	1.05	0.938	1.04	1.17	0.546	0.599	0.562	0.574	0.616
